Data published in patent US6737383B1, “Herbicidal oxadiazolidines” (priority 1999, dated 2004).

Columns and labels:
blackgrass = assay: Test B pre/postemergence blackgrass; format: in vivo, Alopecurus myosuroides
Method in brief: (§1)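 Herbicidal effect was estimated by eye on a ten-point control scale after plants spent twelve to sixteen days in a greenhouse following soil or foliar treatment. Foliar sprays targeted plants at one to four leaves; all doses were formulated in a non-phytotoxic solvent with surfactant.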

surinam grass = assay: Test B pre/postemergence surinam grass; format: in vivo, Brachiaria decumbens
Method in brief: as §1

cocklebur = assay: Test B pre/postemergence cocklebur; format: in vivo, Xanthium strumarium
Method in brief: as §1

corn = assay: Test B pre/postemergence corn; format: in vivo, Zea mays
Method in brief: as §1

crabgrass = assay: Test B pre/postemergence crabgrass; format: in vivo, Digitaria sanguinalis
Method in brief: as §1

giant foxtail = assay: Test B pre/postemergence giant foxtail; format: in vivo, Setaria faberii
Method in brief: as §1

morningglory = assay: Test B pre/postemergence morningglory; format: in vivo, Ipomoea hederacea
Method in brief: as §1

rape = assay: Test B pre/postemergence rape; format: in vivo, Brassica napus
Method in brief: as §1

soybean = assay: Test B pre/postemergence soybean; format: in vivo, Glycine max
Method in brief: as §1

sugar beet = assay: Test B pre/postemergence sugar beet; format: in vivo, Beta vulgaris
Method in brief: as §1

velvetleaf = assay: Test B pre/postemergence velvetleaf; format: in vivo, Abutilon theophrasti
Method in brief: as §1

wheat = assay: Test B pre/postemergence wheat; format: in vivo, Triticum aestivum
Method in brief: as §1

wild oat = assay: Test B pre/postemergence wild oat; format: in vivo, Avena fatua
Method in brief: as §1

purple nutsedge = assay: Test B pre/postemergence purple nutsedge; format: in vivo, Cyperus rotundus
Method in brief: as §1

smallflower flatsedge = assay: Test B flood test smallflower flatsedge; format: in vivo, Cyperus difformis
Method in brief: (§2)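 Each value is a visual injury score relative to controls, with 10 meaning complete control and 0 no effect. Evaluation took place twelve to sixteen days after the 2-leaf-stage plants were treated and kept in the greenhouse.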

duck salad = assay: Test B flood test duck salad; format: in vivo, Heteranthera limosa
Method in brief: as §2

[1] = Postemergence, Rate 125 g/ha, scale of 0 to 10 where 0 is no effect and 10 is complete control
[2] = Preemergence, Rate 62 g/ha, scale 0 to 10 (0 no effect, 10 complete control)
[3] = Preemergence, Rate 125 g/ha, 0 is no effect, 10 is complete control
[4] = Preemergence, Rate 250 g/ha, scale 0 to 10, 0 is no effect, 10 is complete control
[5] = Preemergence, Rate 500 g/ha, scale 0 to 10 (0 no effect, 10 complete control)
[6] = Rate 62 g/ha, Postemergence, scale of 0 to 10 where 0 is no effect and 10 is complete control
[7] = Rate 250 g/ha, Postemergence, scale 0 to 10, 0 is no effect, 10 is complete control
[8] = Rate 500 g/ha, Postemergence, scale 0 to 10
[9] = Postemergence (flood test species), Rate 125 g/ha, scale of 0 to 10 where 0 is no effect and 10 is complete control
[10] = Rate 62 g/ha, Postemergence section, flood test species, scale of 0 to 10 where 0 is no effect and 10 is complete control
[11] = Rate 250 g/ha, Postemergence (flood test), scale 0 to 10, 0 is no effect, 10 is complete control
[12] = Rate 500 g/ha, listed under Postemergence (flood test species), scale 0 to 10

CN(C(=O)n1oc(=O)n(Cc2ccccc2)c1=O)c1ccccc1 [Compound 153]
0: Blackgrass plant response rating (blackgrass; [1]) | Blackgrass plant response rating (blackgrass; [2]) | Blackgrass plant response rating (0 to 10 scale) (blackgrass; [3]) | Blackgrass plant response rating (blackgrass; [4]) | Blackgrass plant response rating (blackgrass; [5]) | Blackgrass plant response rating (blackgrass; [6]) | Plant response rating, Blackgrass (blackgrass; [7]) | Blackgrass plant response rating (blackgrass; [8]) | B. signalgrass plant response rating (surinam grass; [1]) | B. signalgrass plant response rating (surinam grass; [2]) | B. signalgrass plant response rating (0 to 10 scale) (surinam grass; [3]) | B. signalgrass plant response rating (surinam grass; [4]) | B. signalgrass plant response rating (surinam grass; [5]) | B. signalgrass plant response rating (surinam grass; [6]) | Plant response rating, B. signalgrass (surinam grass; [7]) | B. signalgrass plant response rating (surinam grass; Rate 500 g/ha, Postemergence, scale of 0 to 10 where 0 is no effect and 10 is complete control) | Cocklebur plant response rating (cocklebur; [1]) | Cocklebur plant response rating (cocklebur; [2]) | Cocklebur plant response rating (0 to 10 scale) (cocklebur; [3]) | Cocklebur plant response rating (cocklebur; [4]) | Cocklebur plant response rating (cocklebur; [5]) | Cocklebur plant response rating (cocklebur; [6]) | Plant response rating, Cocklebur (cocklebur; [7]) | Cocklebur plant response rating (cocklebur; [8]) | Corn plant response rating (corn; [1]) | Corn plant response rating (corn; [2]) | Corn plant response rating (0 to 10 scale) (corn; [3]) | Corn plant response rating (corn; [4]) | Corn plant response rating (corn; [5]) | Corn plant response rating (corn; [6]) | Plant response rating, Corn (corn; [7]) | Corn plant response rating (corn; [8]) | Crabgrass plant response rating (crabgrass; [1]) | Crabgrass plant response rating (crabgrass; [2]) | Crabgrass plant response rating (0 to 10 scale) (crabgrass; [3]) | Crabgrass plant response rating (crabgrass; [4]) | Crabgrass plant response rating (crabgrass; [5]) | Crabgrass plant response rating (crabgrass; [6]) | Plant response rating, Crabgrass (crabgrass; [7]) | Crabgrass plant response rating (crabgrass; [8]) | Giant foxtail plant response rating (giant foxtail; [1]) | Giant foxtail plant response rating (giant foxtail; [2]) | Giant foxtail plant response rating (0 to 10 scale) (giant foxtail; [3]) | Giant foxtail plant response rating (giant foxtail; [4]) | Giant foxtail plant response rating (giant foxtail; [5]) | Giant foxtail plant response rating (giant foxtail; [6]) | Plant response rating, Giant foxtail (giant foxtail; [7]) | Giant foxtail plant response rating (giant foxtail; [8]) | Morningglory plant response rating (morningglory; [1]) | Morningglory plant response rating (morningglory; [2]) | Morningglory plant response rating (0 to 10 scale) (morningglory; [3]) | Morningglory plant response rating (morningglory; [4]) | Morningglory plant response rating (morningglory; [5]) | Morningglory plant response rating (morningglory; [6]) | Plant response rating, Morningglory (morningglory; [7]) | Morningglory plant response rating (morningglory; [8]) | Rape plant response rating (rape; [1]) | Rape plant response rating (rape; [2]) | Rape plant response rating (0 to 10 scale) (rape; [3]) | Rape plant response rating (rape; [4]) | Rape plant response rating (rape; [5]) | Rape plant response rating (rape; [6]) | Plant response rating, Rape (rape; [7]) | Rape plant response rating (rape; [8]) | Soybean plant response rating (soybean; [1]) | Soybean plant response rating (soybean; [2]) | Soybean plant response rating (0 to 10 scale) (soybean; [3]) | Soybean plant response rating (soybean; [4]) | Soybean plant response rating (soybean; [5]) | Soybean plant response rating (soybean; [6]) | Plant response rating, Soybean (soybean; [7]) | Soybean plant response rating (soybean; [8]) | Sugarbeets plant response rating (sugar beet; [1]) | Sugarbeets plant response rating (sugar beet; [2]) | Sugarbeets plant response rating (0 to 10 scale) (sugar beet; [3]) | Sugarbeets plant response rating (sugar beet; [4]) | Sugarbeets plant response rating (sugar beet; [5]) | Sugarbeets plant response rating (sugar beet; [6]) | Plant response rating, Sugarbeets (sugar beet; [7]) | Sugarbeets plant response rating (sugar beet; [8]) | Velvetleaf plant response rating (velvetleaf; [2]) | Velvetleaf plant response rating (0 to 10 scale) (velvetleaf; [3]) | Velvetleaf plant response rating (velvetleaf; [4]) | Velvetleaf plant response rating (velvetleaf; [5]) | Velvetleaf plant response rating (velvetleaf; [6]) | Plant response rating, Velvetleaf (velvetleaf; [7]) | Velvetleaf plant response rating (velvetleaf; [8]) | Wheat plant response rating (wheat; [2]) | Wheat plant response rating (0 to 10 scale) (wheat; [3]) | Wheat plant response rating (wheat; [4]) | Wheat plant response rating (wheat; [5]) | Wheat plant response rating (wheat; [6]) | Plant response rating, Wheat (wheat; [7]) | Wheat plant response rating (wheat; [8]) | Wild oats plant response rating (wild oat; [2]) | Wild oats plant response rating (0 to 10 scale) (wild oat; [3]) | Wild oats plant response rating (wild oat; [4]) | Wild oats plant response rating (wild oat; [5]) | Wild oats plant response rating (wild oat; [6]) | Plant response rating, Wild oats (wild oat; [7]) | Wild oats plant response rating (wild oat; [8]) | Nutsedge plant response rating (purple nutsedge; [1]) | Nutsedge plant response rating (purple nutsedge; [2]) | Nutsedge plant response rating (0 to 10 scale) (purple nutsedge; [3]) | Nutsedge plant response rating (purple nutsedge; [4]) | Nutsedge plant response rating (purple nutsedge; [5]) | Nutsedge plant response rating (purple nutsedge; [6]) | Plant response rating, Nutsedge (purple nutsedge; [7]) | Nutsedge plant response rating (purple nutsedge; [8]) | S. Flatsedge plant response rating (smallflower flatsedge; [9]) | S. Flatsedge plant response rating (smallflower flatsedge; [10]) | Plant response rating, S. Flatsedge (smallflower flatsedge; [11]) | S. Flatsedge plant response rating (smallflower flatsedge; [12]) | Ducksalad plant response rating (duck salad; [9]) | Ducksalad plant response rating (duck salad; [10]) | Plant response rating, Ducksalad (duck salad; [11]) | Ducksalad plant response rating (duck salad; [12])
